Data on eight compounds can be found in PMC9841533, “Microtubule-Stabilizing 1,2,4-Triazolo[1,5-a]pyrimidines as Candidate Therapeutics for Neurodegenerative Disease: Matched Molecular Pair Analyses and Computational Studies Reveal New Structure–Activity Insights” (Journal of Medicinal Chemistry, 2022).

Counter-ions that a name gives are not always drawn. Like-named read-outs stand apart in the source and are kept apart here.

Assay [1] has as its system acetylated α-tubulin (AcTub) levels in QBI293 cells. Kind of assay: QBI293 cell assay of MT stabilization: acetylated α-tubulin ELISA. The class given is cell-based. As to the method:
(§1) All test compounds were initially screened in the same cell-based (QBI293) assay of MT stabilization used in our previous SAR studies[11],[12] so as to allow direct comparison with literature data. Changes in levels of acetylated α-tubulin (AcTub) and total α-tubulin (α-Tub), relative to vehicle-treated negative control cells, were determined after 4 h of incubation with test compounds at 1 and 10 μM. To account for possible day-to-day differences in the responsiveness of cells to MT-stabilizing treatment, compound-dependent changes in AcTub levels relative to DMSO-treated cells were also normalized to the corresponding changes caused by 100 nM of 5 that was used as a positive control. In addition, docking studies, binding free energy calculations, and in selected cases, molecular dynamic simulations were conducted using an X-ray structure of the vinca and seventh sites (PDB: 5NJH,[10]7CLD[13]). […] For selected compounds, additional studies included testing in the QBI293 cell AcTub assay at additional compound concentrations, and/or evaluation of test compounds for their ability to prevent MT collapse in primary neuron cultures treated with the phosphatase inhibitor, okadaic […] (OA). Finally, cytotoxicity studies in QBI293 and HeLa cells were also conducted for representative examples (Supporting Information).
(§2) Compound-induced changes in acetylated-tubulin and α-tubulin in QBI293 cells or primary mouse or rat neurons were as previously described.[11],[12] […] The plated cells were incubated overnight, after which the medium was aspirated and fresh medium containing vehicle (0.25–0.3% DMSO) or test compound was added. Test compounds were prepared as 4–20 mM stock solutions in 100% DMSO, and these were diluted in culture medium prior to addition to the QBI293 cells. After 4 h incubation, whole-cell extracts were prepared from the QBI293 cells as described[11] and the supernatant fraction from each sample was assessed for protein content by bicinchoninic acid (BCA) assay. The amount of acetyl-tubulin (AcTub) and α-tubulin (αTub) within the cell extract samples was quantified using specific enzyme-linked immunosorbent assays (ELISA), as previously described.[11] Acetyl-tubulin levels were determined in a similar manner in rat or mouse cortical neuron cultures in which embryonic dissociated cortical neurons were plated at 3 × 10^5 cells/well in poly-D-lysine-coated 12-well plates, essentially as previously described.[11] […] Culture homogenates were prepared for the determination of AcTub levels by ELISA as previously described.[11]

Assay [2] relates to total α-tubulin (α-Tub) levels in QBI293 cells. Put plainly: QBI293 cell assay: total α-tubulin ELISA. The class given is cell-based. Here is the method:
as §1, §2

Where [3] appears, read: 4 h, 1 uM compound, read-out: AcTub (1uM).
[4] abbreviates: 4 h, 10 uM compound, read-out: AcTub (10 uM).
Where [5] appears, read: 4 h incubation, 1 μM, read-out: AcTub 1 μM, fold-change compared to vehicle (DMSO)-treated cells.
Setting [6] is: 4 h incubation, 10 μM, read-out: AcTub 10 μM, fold-change compared to vehicle (DMSO)-treated cells.
[7] abbreviates: 4 h, 1 uM compound, read-out: AlfaTub (1uM).
The mark [8] stands for this setting: 4 h, 10 uM compound, read-out: AlfaTub (10 uM).
The mark [9] stands for this setting: 4 h incubation, 1 μM, read-out: α-Tub 1 μM, fold-change compared to vehicle (DMSO)-treated cells.
The mark [10] stands for this setting: 4 h incubation, 10 μM, read-out: α-Tub 10 μM, fold-change compared to vehicle (DMSO)-treated cells.

Consider `C[C@@H](Nc1c(-c2c(F)cc(F)cc2F)c(Cl)nc2ncnn12)C1CC1` [Compound 17, (R)-5-Chloro-N-(1-cyclopropylethyl)-6-(2,4,6-trifluorophenyl)-[1,2,4]triazolo[1,5-a]pyrimidin-7-amine], for which the “AcTub (1 uM - normalized)” value in assay [1] (1 uM compound) came to 0.19. Further, the “AcTub (10 uM - normalized)” value in assay [1] (10 uM compound) was determined as 0.4. Further, the fold induction at 1 µM in assay [1] (setting [3]) was 1.95; in assay [1] (setting [5]) it was 1.95 ± 0.18; in assay [2] (setting [7]), 1.06; in assay [2] (setting [9]) it was 1.06 ± 0.07. The fold induction at 10 µM in assay [1] (setting [4]) turned out to be 3.99; in assay [1] (setting [6]), 3.99 ± 0.1; in assay [2] (setting [8]) it was 1.16; in assay [2] (setting [10]), 1.16 ± 0.02. For the same compound, in assay [1] (4 h incubation, 1 μM), the “AcTub 1 μM, fold-change compared to positive control compound 5 (100 nM) (in parentheses)” value (from here on “AcTub 1 μM, fold-change”) came out at 0.19 fold-change. Also, the “AcTub 10 μM, fold-change compared to positive control compound 5 (100 nM) (in parentheses)” value (“AcTub 10 μM, fold-change” below) in assay [1] (4 h incubation, 10 μM) is on record as 0.40 fold-change.
In the case of `C[C@H](Nc1c(-c2c(F)cc(OCCCCO)cc2F)c(Cl)nc2ncnn12)C(F)(F)F` [Compound 19, (S)-4-(4-(5-Chloro-7-((1,1,1-trifluoropropan-2-yl)amino)-[1,2,4]triazolo[1,5-a]pyrimidin-6-yl)-3,5-difluorophenoxy)butan-1-ol], the “AcTub (1 uM - normalized)” value in assay [1] (1 uM compound) is listed as 0.59. Also, the “AcTub (10 uM - normalized)” value in assay [1] (10 uM compound) is recorded as 0.6. Also, the fold induction at 1 µM was determined as 7.3 in assay [1] (setting [3]), 7.3 ± 1.51 in assay [1] (setting [5]), 0.62 in assay [2] (setting [7]) and 0.62 ± 0.05 in assay [2] (setting [9]). The fold induction at 10 µM in assay [1] (setting [4]) amounted to 7.04; in assay [1] (setting [6]), 7.04 ± 0.04; in assay [2] (setting [8]) it was 0.35; in assay [2] (setting [10]), 0.35 ± 0.04. For the same compound, the “AcTub 1 μM, fold-change” value in assay [1] (4 h incubation, 1 μM) was found to be 0.59 fold-change. Moreover, the “AcTub 10 μM, fold-change” value in assay [1] (4 h incubation, 10 μM) was 0.6 fold-change.
As for `C[C@H](Nc1c(-c2c(F)cc(OCCCCCO)cc2F)c(Cl)nc2ncnn12)C(F)(F)F` [Compound 20, (S)-5-(4-(5-Chloro-7-((1,1,1-trifluoropropan-2-yl)amino)-[1,2,4]triazolo[1,5-a]pyrimidin-6-yl)-3,5-difluorophenoxy)pentan-1-ol], the “AcTub (1 uM - normalized)” value in assay [1] (1 uM compound) came out at 0.50. The “AcTub (10 uM - normalized)” value in assay [1] (10 uM compound) came out at 0.96. Further, the fold induction at 1 µM in assay [1] (setting [3]) amounted to 3.73; in assay [1] (setting [5]), 3.73 ± 0.22; in assay [2] (setting [7]), 0.37; in assay [2] (setting [9]), 0.43 ± 0.07. In addition, the fold induction at 10 µM in assay [1] (setting [4]) was 7.12; in assay [1] (setting [6]), 7.12 ± 0.29; in assay [2] (setting [8]), 0.28; in assay [2] (setting [10]), 0.36 ± 0.03. In addition, the “AcTub 1 μM, fold-change” value in assay [1] (4 h incubation, 1 μM) is 0.50 fold-change. In assay [1] (4 h incubation, 10 μM), the “AcTub 10 μM, fold-change” value is 0.96 fold-change.
For `C[C@@H](Nc1c(-c2c(F)cc(OCCCN(C)C)cc2F)c(Cl)nc2ncnn12)C(C)(C)C` [Compound 24, (R)-3-(4-(5-Chloro-7-((3,3-dimethylbutan-2-yl)amino)-[1,2,4]triazolo[1,5-a]pyrimidin-6-yl)-3,5-difluorophenoxy)-N,N-dimethylpropan-1-aminium Formate], in assay [1] (4 h, 30 μM), the “cellular AcTub at higher (30 μM) concentration” value is recorded as “further concentration-dependent decrease in cellular AcTub”. Further, in assay [2] (4 h, 30 μM), the “total α-Tub at higher (30 μM) concentration” value is “without a reduction of total α-Tub”.
As to `CN(C)CCCOc1cc(F)c(-c2c(Cl)nc3ncnn3c2NCC(C)(C)C)c(F)c1` [Compound 26, 5-Chloro-6-(4-(3-(dimethylamino)propoxy)-2,6-difluorophenyl)-N-neopentyl-[1,2,4]triazolo[1,5-a]pyrimidin-7-amine], the “AcTub (1 uM - normalized)” value in assay [1] (1 uM compound) was found to be 1.12. For the same compound, the “AcTub (10 uM - normalized)” value in assay [1] (10 uM compound) is on record as 0.1. The fold induction at 1 µM was determined as 5.98 in assay [1] (setting [3]), 5.98 ± 0.11 in assay [1] (setting [5]), 0.67 in assay [2] (setting [7]) and 0.69 ± 0.03 in assay [2] (setting [9]). Also, the fold induction at 10 µM stood at 0.52 in assay [1] (setting [4]), 0.52 ± 0.07 in assay [1] (setting [6]), 0.73 in assay [2] (setting [8]) and 0.73 ± 0.07 in assay [2] (setting [10]). Besides, in assay [1] (4 h incubation, 1 μM), the “AcTub 1 μM, fold-change” value was found to be 1.12 fold-change. Further, the “AcTub 10 μM, fold-change” value in assay [1] (4 h incubation, 10 μM) was found to be 0.10 fold-change.
Consider `CN(C)CCCOc1cc(F)c(-c2c(Cl)nc3ncnn3c2NCC2(C)CC2)c(F)c1` [Compound 28, 5-Chloro-6-(4-(3-(dimethylamino)propoxy)-2,6-difluorophenyl)-N-((1-methylcyclopropyl)methyl)-[1,2,4]triazolo[1,5-a]pyrimidin-7-amine], for which, in assay [1] (1 uM compound), the “AcTub (1 uM - normalized)” value is given as 0.53. Besides, the “AcTub (10 uM - normalized)” value in assay [1] (10 uM compound) was found to be 0.09. For the same compound, the fold induction at 1 µM turned out to be 2.81 in assay [1] (setting [3]), 2.81 ± 0.35 in assay [1] (setting [5]), 0.84 in assay [2] (setting [7]) and 0.84 ± 0.12 in assay [2] (setting [9]). The fold induction at 10 µM in assay [1] (setting [4]) came out at 0.49; in assay [1] (setting [6]), 0.49 ± 0.03; in assay [2] (setting [8]) it was 1.1; in assay [2] (setting [10]) it was 1.1 ± 0.2. Also, the “AcTub 1 μM, fold-change” value in assay [1] (4 h incubation, 1 μM) was determined as 0.53 fold-change. For the same compound, the “AcTub 10 μM, fold-change” value in assay [1] (4 h incubation, 10 μM) is 0.09 fold-change.
As for `CN(C)CCCOc1cc(F)c(-c2c(Cl)nc3ncnn3c2NCC2(C(F)(F)F)CC2)c(F)c1` [Compound 29, 5-Chloro-6-(4-(3-(dimethylamino)propoxy)-2,6-difluorophenyl)-N-((1-(trifluoromethyl)cyclopropyl)methyl)-[1,2,4]triazolo[1,5-a]pyrimidin-7-amine], the “AcTub (1 uM - normalized)” value in assay [1] (1 uM compound) stood at 0.63. Also, the “AcTub (10 uM - normalized)” value in assay [1] (10 uM compound) came out at 0.14. The fold induction at 1 µM in assay [1] (setting [3]) was determined as 3.75; in assay [1] (setting [5]), 3.75 ± 0.13; in assay [2] (setting [7]), 0.82; in assay [2] (setting [9]) it was 0.82 ± 0.01. Further, the fold induction at 10 µM in assay [1] (setting [4]) stood at 0.81; in assay [1] (setting [6]), 0.81 ± 0.09; in assay [2] (setting [8]), 1.24; in assay [2] (setting [10]), 1.24 ± 0.13. Besides, in assay [1] (4 h incubation, 1 μM), the “AcTub 1 μM, fold-change” value was 0.63 fold-change. Also, the “AcTub 10 μM, fold-change” value in assay [1] (4 h incubation, 10 μM) is 0.14 fold-change.
For the compound `CN(C)CCCOc1cc(F)c(-c2c(Cl)nc3ncnn3c2NCC2CCC2)c(F)c1` [Compound 30, 5-Chloro-N-(cyclobutylmethyl)-6-(4-(3-(dimethylamino)propoxy)-2,6-difluorophenyl)-[1,2,4]triazolo[1,5-a]pyrimidin-7-amine], the “AcTub (1 uM - normalized)” value in assay [1] (1 uM compound) is 0.61. Further, the “AcTub (10 uM - normalized)” value in assay [1] (10 uM compound) is 0.15. The fold induction at 1 µM worked out at 1.49 in assay [1] (setting [3]), 1.49 ± 0.18 in assay [1] (setting [5]), 0.8 in assay [2] (setting [7]) and 0.8 ± 0.03 in assay [2] (setting [9]). Further, the fold induction at 10 µM was found to be 0.37 in assay [1] (setting [4]), 0.37 ± 0.12 in assay [1] (setting [6]), 0.93 in assay [2] (setting [8]) and 0.93 ± 0.05 in assay [2] (setting [10]). In addition, the “AcTub 1 μM, fold-change” value in assay [1] (4 h incubation, 1 μM) came out at 0.61 fold-change. Also, the “AcTub 10 μM, fold-change” value in assay [1] (4 h incubation, 10 μM) stood at 0.15 fold-change.
